Results from article PMC11597697, “Chemical Composition and Bioactivity Dataset Integration to Identify Antiproliferative Compounds in Phyllanthus Plants” (Pharmaceutics, 2024).
Like-named read-outs stand apart in the source and are kept apart here.

Experiments:
[1] = system: PC-3 (prostate adenocarcinoma); test: Antiproliferative MTT assay, PC-3; assay type: cell-based; settings: Homo sapiens, read-out: IC50 PC-3
Procedure: (§1) Human cancer cell lines—prostatic adenocarcinoma (PC-3, ATCC CRL-7934), lung adenocarcinoma (A549, ATCC CCL-185), and cervical carcinoma (SiHa, ATCC HTB-35)—along with normal mouse fibroblasts (L929, ATCC CRL-6364) were cultured as monolayers in Dulbecco’s Modified Eagle Medium (DMEM) supplemented with 10% (v/v) fetal bovine serum (FBS), 1% (v/v) penicillin, and 1% (v/v) streptomycin. These cultures were maintained at 37 °C in a humidified atmosphere with 5% CO2. The antiproliferative effects of Phyllanthus-derived extracts and isolated compounds were evaluated using a previously described method. Cells were seeded at 5 × 10^3/well in 96-well plates (100 µL) and incubated for 24 h. After incubation, the medium was replaced with 100 µL of serum-free medium containing varying concentrations of the treatments (0.5–250 µg/mL for extracts and 0.01–100 µg/mL for pure compounds). Each treatment was tested in triplicate. Controls included a PBS-containing medium as a blank, 1% (w/v) bovine serum albumin-amended medium as a negative control (100% survival), and podophyllotoxin (0.16–100 µg/mL) as a positive control. After 48 h of treatment, cell viability was determined by adding 10 µL of MTT (5 mg/mL) to each well, followed by a 3-h incubation under the same culture conditions. The resulting formazan crystals were dissolved in 100 µL of DMSO, and absorbance was measured at 570 nm using a Varioskan LUX 96-well plate reader (Thermo Fisher Scientific, Waltham, MA, USA). The antiproliferative effects were quantified as the half-maximal inhibitory concentration (IC50) in µg/mL for extracts and µM for pure compounds. Dose–response curves were used to determine IC50 values from non-linear regression using GraphPad 7.0 (GraphPad, San Diego, CA, USA).

[2] = system: A549 (lung carcinoma); test: Antiproliferative MTT assay, A549; assay type: cell-based; settings: Homo sapiens, read-out: IC50 A549
Procedure: as §1

[3] = system: L929 (murine fibroblasts); test: Antiproliferative MTT assay, normal fibroblasts L929; assay type: cell-based, mouse; settings: for IC50: Mus musculus, read-out: IC50 L929
Procedure: as §1

[4] = system: SiHa (cervical carcinoma); test: Antiproliferative MTT assay, SiHa; assay type: cell-based; settings: Homo sapiens
Procedure: as §1

[5] = pure compounds, 48 h treatment, MTT
[6] = A549, pure compounds, 48 h treatment, MTT
[7] = L929, pure compounds, 48 h treatment, MTT, normal cell line
[8] = pure compounds, 48 h treatment, MTT, read-out: IC50 SiHa

SMILES	IC50 [1, 5] [µM]	IC50 [2, 6] [µM]	IC50 [4, 8] [µM]	IC50 [3, 7] [µM]	IC50 L929 ([3]; pure compounds, 48 h treatment, MTT, normal cell line)	IC50 ([1]; 48 h) [µM]	IC50 ([2]; A549, 48 h) [µM]	IC50 ([3]; L929, 48 h) [µM]	IC50 ([4]; 48 h, read-out: IC50 SiHa, pure compounds, 48 h treatment, MTT) [µM]	IC50 ([4]; 48 h, read-out: IC50 SiHa) [µM]
COc1cc(-c2c3c(c(OC)c4cc5c(cc24)OCO5)C(OC(C)=O)OC3=O)cc2c1OCO2 (single isomer, unassigned; (+)) [Compound 6, (+)-5-methoxy-9-(7-methoxybenzo[d][1,3]dioxol-5-yl)-8-oxo-6,8-dihydrofuro[3′,4′:6,7]naphtho[2,3-d][1,3]dioxol-6-yl acetate]	–	–	–	–	–	15.3	26.5	86.3	3.62	–
COc1cc2c(OC)c3c(c(-c4ccc5c(c4)OCO5)c2cc1O)C(=O)OC3 [Compound 3, phyllanthusmin A]	16.3	93.2	8.61	92.3	–	–	–	–	–	–
COc1cc2c(OC)c3c(c(-c4ccc5c(c4)OCO5)c2cc1OC)C(=O)OC3 [Compound 5, justicidin A]	17.6	50.3	6.53	> 100	–	–	–	–	–	–
COc1cc([C@@H]2c3cc4c(cc3[C@H](O)[C@H]3COC(=O)[C@H]23)OCO4)cc(OC)c1OC [ppt, podophyllotoxin, reference compound]	–	–	–	–	–	2.22	4.82	2.53	–	1.85

The next lines start with results.

IC50 [1, 5] [µM]	IC50 [2, 6] [µM]	IC50 [4, 8] [µM]	SMILES	IC50 [3, 7] [µM]	IC50 L929 ([3]; pure compounds, 48 h treatment, MTT, normal cell line)	IC50 ([1]; 48 h) [µM]	IC50 ([2]; A549, 48 h) [µM]	IC50 ([3]; L929, 48 h) [µM]	IC50 ([4]; 48 h, read-out: IC50 SiHa, pure compounds, 48 h treatment, MTT) [µM]	IC50 ([4]; 48 h, read-out: IC50 SiHa) [µM]
6.55	78.6	56.8	COc1cc(C=C2C(=O)OCC2Cc2ccc(O)c(OC)c2)ccc1O (single isomer, unassigned; (+)) [Compound 2, (+)-acutissimalignan B]	> 100	no observed cytotoxicity	–	–	–	–	–
4.55	12.3	61.2	O=C1OC[C@H](Cc2ccc3c(c2)OCO3)[C@H]1Cc1ccc2c(c1)OCO2 [Compound 4, (−)-hinokinin]	76.3	–	–	–	–	–	–
15.2	45.3	5.23	COc1cc2c(OC)c3c(c(-c4ccc5c(c4)OCO5)c2cc1OC)C(=O)OC3OC (centres unmarked) [Compound 7, justicidin P]	> 100	–	–	–	–	–	–
